Results reported in patent publication US8138168B1 (Takeda Pharmaceutical Company Limited, priority 2007, dated 2012).

target: T1, Recombinant human renin (Homo sapiens, UniProt P00797); test: In vitro enzymatic activity assay of renin inhibitors (fluorogenic peptide substrate); format: biochemical; conditions: isomers separated by preparative SFC; more or less active isomer as renin inhibitor
T1 construct: isolate the active form (residues 67-406); made in house; host or cells: FreeStyle 293-F cells (transient expression of pcDNA3.1(+)/hREN)
T1 sequence (P00797 67-406): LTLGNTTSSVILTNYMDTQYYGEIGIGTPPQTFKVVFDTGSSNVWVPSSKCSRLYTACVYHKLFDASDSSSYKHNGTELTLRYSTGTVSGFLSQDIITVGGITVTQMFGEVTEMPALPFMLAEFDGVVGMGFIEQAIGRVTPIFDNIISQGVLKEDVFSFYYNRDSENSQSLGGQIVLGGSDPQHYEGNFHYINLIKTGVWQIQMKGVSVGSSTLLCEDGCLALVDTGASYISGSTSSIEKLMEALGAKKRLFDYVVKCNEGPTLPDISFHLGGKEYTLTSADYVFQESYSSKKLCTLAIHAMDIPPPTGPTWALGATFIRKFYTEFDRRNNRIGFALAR
Summary of the method: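 Enzyme: recombinant human renin, 3 nM final, 10 min compound pre-incubation at 37 °C; buffer 50 mM Hepes pH 7.4 with 0.1 mg/mL BSA or extra 2% BSA; 5% DMSO.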

Eutomer / distomer designation of the separated stereoisomers | SMILES
Distomer | COCCCn1c([C@]2(O)CCCN(C(=O)C[C@H](N)Cc3ccc(Cl)cc3)C2)nc2ccccc21 [Compound 247, (R)-3-amino-4-(4-chlorophenyl)-1-((S)-3-hydroxy-3-(1-(3-methoxypropyl)-1H-benzo[d]imidazol-2-yl)piperidin-1-yl)butan-1-one]

same assay, conditions: read-out: IC50 of Exemplified Compounds Against Renin

SMILES | IC50 [nM]
COCCCn1c([C@@H]2CCCN(C(=O)C[C@H](N)Cc3ccc(-c4ccc5nonc5c4)cc3)C2)nc2ccccc21 [Compound 140, (R)-3-amino-4-(4-(benzo[c][1,2,5]oxadiazol-5-yl)phenyl)-1-((R)-3-(1-(3-metboxypropyl)-1H-benzo[d]imidazol-2-yl)piperidin-1-yl)butan-1-one] | < 100
COCCCn1c([C@@H]2CCCN(C(=O)C[C@H](N)c3cccc(Br)c3)C2)nc2ccccc21 [Compound 80, (S)-3-amino-3-(3-bromophenyl)-1((R)-3-(1-(3-methoxypropyl)-1H-benzo[d]imidazol-2-yl)piperidin-1-yl)propan-1-one] | 100 to 1000
COCCCn1c([C@@H]2CCCN(C(=O)C[C@H](N)Cc3ccc(-n4ccc5ccccc5c4=O)cc3)C2)nc2ccccc21 [Compound 229, 2-(4-((R)-2-amino-4-((R)-3-(1-(3-methoxypropyl)-1H-benzo[d]imidazol-2-yl)piperidin-1-yl)-4-oxobutyl)phenyl)isoquinolin-1(2H)-one] | < 100
COCCCn1c([C@]2(O)CCCN(C(=O)C[C@H](N)Cc3ccc(Cl)cc3)C2)nc2ccccc21 [Compound 247, (R)-3-amino-4-(4-chlorophenyl)-1-((S)-3-hydroxy-3-(1-(3-methoxypropyl)-1H-benzo[d]imidazol-2-yl)piperidin-1-yl)butan-1-one] | > 1000
CCCNC(=O)N1CCCC(c2nc3ccccc3[nH]2)C1 (stereo not shown) [Compound 17, 3-(1H-benzo[d]imidazol-2-yl)-N-propylpiperidine-1-carboxamide] | > 1000
COCCCn1c([C@@H]2CCCN(C(=O)C[C@H](N)Cc3ccc(Oc4ccccc4)cc3)C2)nc2ccccc21 [Compound 238, (R)-3-amino-1((R)-3-(1-(3-methoxypropyl)-1H-benzo[d]imidazol-2-yl)piperidin-1-yl)-4-(4-phenoxyphenyl)butan-1-one] | < 100
COCCCn1c([C@@H]2CCCN(C(=O)C[C@H](N)Cc3ccc4ccccc4c3)C2)nc2cc(F)ccc21 [Compound 96, (R)-3-amino-1((R)-3-(5-fluoro-1-(3-methoxypropyl)-1H-benzo[d]imidazol-2-yl)piperidin-1-yl)-4-(naphthalen-2-yl)butan-1-one] | 100 to 1000
COCCCn1c([C@@H]2CCCN(C(=O)CC(N)C3CCNCC3)C2)nc2ccccc21 (stereo partly drawn) [Compound 94, 3-amino-1-((R)-3-(1-(3-methoxypropyl)-1H-benzo[d]imidazol-2-yl)piperidin-1-yl)-3-(piperidin-4-yl)propan-1-one] | > 1000
COCCCn1c([C@@H]2CCCN(C(=O)C[C@H](N)Cc3ccc(-c4ccc(N5CCOCC5)nc4)cc3)C2)nc2ccccc21 [Compound 135, (R)-3-amino-1-((R)-3-(1-(3-methoxypropyl)-1H-benzo[d]imidazol-2-yl)piperidin-1-yl)-4-(4-(6-morpholinopyridin-3-yl)phenyl)butan-1-one] | < 100
COCCCn1c([C@@H]2CCCN(C(=O)C[C@H](N)Cc3ccc(N4CCC(C(=O)OC)CC4)cc3)C2)nc2ccccc21 [Compound 237, methyl 1-(4-((R)-2-amino-4-((R)-3-(1-(3-methoxypropyl)-1H-benzo[d]imidazol-2-yl)ppiperidin-1-yl)-4-oxobutyl)phenyl)piperidine-4-carboxylate] | 100 to 1000
CCOc1ccc(-c2ccc(C[C@@H](N)CC(=O)N3CCC[C@@H](c4nc5ccccc5n4CCCOC)C3)cc2)cn1 [Compound 138, (R)-3-amino-4-(4-(6-ethoxypyridin-3-yl)phenyl)-1-((R)-3-(1-(3-methoxypropyl)-1H-benzo[d]imidazol-2-yl)piperidin-1-yl)butan-1-one] | < 100

Now from value to compound:

IC50 [nM] | SMILES
100 to 1000 | COCCCn1c([C@@H]2CCCN(C(=O)C[C@H](N)CNC(=O)c3cccc(Cl)c3)C2)nc2ccccc21 [Compound 298, N-((S)-2-amino-4-((R)-3-(1-(3-methoxypropyl)-1H-benzo[d]imidazol-2-yl)piperidin-1-yl)-4-oxobutyl)-3-chlorobenzamide]
100 to 1000 | COCCCn1c([C@@H]2CCCN(C(=O)C[C@H](N)CNC(=O)c3ccc(Cl)cc3)C2)nc2ccccc21 [Compound 309, N-((S)-2-amino-4-((R)-3-(1-(3-methoxypropyl)-1H-benzo[d]imidazol-2-yl)piperidin-1-yl)-4-oxobutyl)-4-chlorobenzamide]
100 to 1000 | COCCCn1c([C@@H]2CCCN(C(=O)[C@@H]3CN(S(=O)(=O)c4cccc(Cl)c4)C[C@H]3N)C2)nc2ccccc21 [Compound 351, ((3R,4S)-4-amino-1-(3-chlorophenylsulfonyl)pyrrolidin-3-yl)((R)-3-(1-(3-methoxypropyl)-1H-benzo[d]imidazol-2-yl)piperidin-1-yl)methanone]
100 to 1000 | COCCCn1c([C@@H]2CCCN(C(=O)C[C@H](N)CNC(=O)c3ccc4c(c3)OCCO4)C2)nc2ccccc21 [Compound 308, N-((S)-2-amino-4-((R)-3-(1-(3-methoxypropyl)-1H-benzo[d]imidazol-2-yl)piperidin-1-yl)-4-oxobutyl)-2,3-dihydrobenzo[b][1,4]dioxine-6-carboxamide]
100 to 1000 | NC(=O)CCn1c([C@@H]2CCCN(C(=O)C[C@H](N)Cc3ccc(-c4ccncc4)cc3)C2)nc2ccccc21 [Compound 488, 3-(2-((R)-1-((R)-3-amino-4-(4-(pyridin-4-yl)phenyl)butanoyl)piperidin-3-yl)-1H-benzo[d]imidazol-1-yl)propanamide]
> 1000 | COCCCn1c([C@@H]2CCCN(C(=O)C[C@H](N)CNC(=O)c3ccco3)C2)nc2ccccc21 [Compound 325, N-((S)-2-amino-4-((R)-3-(1-(3-methoxypropyl)-1H-benzo[d]imidazol-2-yl)piperidin-1-yl)-4-oxobutyl)furan-2-carboxamide]
< 100 | COC(=O)Nc1ccc(-c2ccc(C[C@@H](N)CC(=O)N3CCC[C@@H](c4nc5ccccc5n4CCNC(C)=O)C3)cc2)cc1 [Compound 457, methyl 4′-((R)-4-((R)-3-(1-(2-acetamidoethyl)-1H-benzo[d]imidazol-2-yl)piperidin-1-yl)-2-amino-4-oxobutyl)biphenyl-4-ylcarbamate]
100 to 1000 | CCOC(=O)c1ccc(-c2ccc(C(=O)NC[C@@H](N)CC(=O)N3CCC[C@@H](c4nc5ccccc5n4CCCOC)C3)o2)cc1 [Compound 294, ethyl 4-(5-((S)-2-amino-4-((R)-3-(1-(3-methoxypropyl)-1H-benzo[d]imidazol-2-yl)piperidin-1-yl)-4-oxobutylcarbamoyl)furan-2-yl)benzoate]
100 to 1000 | COCCCn1c([C@@H]2CCCN(C(=O)[C@@H]3CN(S(=O)(=O)c4c(C)cccc4Cl)C[C@H]3N)C2)nc2ccccc21 [Compound 359, ((3R,4S)-4-amino-1-(2-chloro-6-methylphenylsulfonyl)pyrrolidin-3-yl)((R)-3-(1-(3-methoxypropyl)-1H-benzo[d]imidazol-2-yl)piperidin-1-yl)methanone]
> 1000 | COCCCn1c([C@@H]2CCCN(C(=O)[C@@H]3CN(S(=O)(=O)c4cccc5c4ccn5C)C[C@H]3N)C2)nc2ccccc21 [Compound 392, ((3R,4S)-4-amino-1-(1-methyl-1H-indol-4-ylsulfonyl)pyrrolidin-3-yl)((R)-3-(1-(3-methoxypropyl)-1H-benzo[d]imidazol-2-yl)piperidin-1-yl)methanone]
